Data as given in PMC5933747 (PLoS ONE, 2018).
Like-named read-outs stand apart in the source and are kept apart here.

How the values were obtained:
Format in all cases: cell-based
human NaV1.5 = human NaV1.5 (Homo sapiens, UniProt Q14524); assay: IonWorks Quattro (IWQ) electrophysiology, human NaV1.5
human NaV1.4 = human NaV1.4 (Homo sapiens, UniProt P35499); assay: IonWorks Quattro (IWQ) electrophysiology, human NaV1.4
human NaV1.7 = human NaV1.7 (Homo sapiens, UniProt Q15858); assay: IonWorks Quattro (IWQ) electrophysiology, human NaV1.7
[1] = read-out: Glu mutant IWQ IC50 NaV1.5
[2] = read-out: Glu mutant IWQ IC50 NaV1.4
[3] = read-out: Glu mutant IWQ IC50 NaV1.7
[4] = read-out: Ala mutant IWQ IC50 NaV1.5
[5] = read-out: Ala mutant IWQ IC50 NaV1.4
[6] = read-out: Ala mutant IWQ IC50 NaV1.7

Chain of human NaV1.7 (Q15858 whole entry): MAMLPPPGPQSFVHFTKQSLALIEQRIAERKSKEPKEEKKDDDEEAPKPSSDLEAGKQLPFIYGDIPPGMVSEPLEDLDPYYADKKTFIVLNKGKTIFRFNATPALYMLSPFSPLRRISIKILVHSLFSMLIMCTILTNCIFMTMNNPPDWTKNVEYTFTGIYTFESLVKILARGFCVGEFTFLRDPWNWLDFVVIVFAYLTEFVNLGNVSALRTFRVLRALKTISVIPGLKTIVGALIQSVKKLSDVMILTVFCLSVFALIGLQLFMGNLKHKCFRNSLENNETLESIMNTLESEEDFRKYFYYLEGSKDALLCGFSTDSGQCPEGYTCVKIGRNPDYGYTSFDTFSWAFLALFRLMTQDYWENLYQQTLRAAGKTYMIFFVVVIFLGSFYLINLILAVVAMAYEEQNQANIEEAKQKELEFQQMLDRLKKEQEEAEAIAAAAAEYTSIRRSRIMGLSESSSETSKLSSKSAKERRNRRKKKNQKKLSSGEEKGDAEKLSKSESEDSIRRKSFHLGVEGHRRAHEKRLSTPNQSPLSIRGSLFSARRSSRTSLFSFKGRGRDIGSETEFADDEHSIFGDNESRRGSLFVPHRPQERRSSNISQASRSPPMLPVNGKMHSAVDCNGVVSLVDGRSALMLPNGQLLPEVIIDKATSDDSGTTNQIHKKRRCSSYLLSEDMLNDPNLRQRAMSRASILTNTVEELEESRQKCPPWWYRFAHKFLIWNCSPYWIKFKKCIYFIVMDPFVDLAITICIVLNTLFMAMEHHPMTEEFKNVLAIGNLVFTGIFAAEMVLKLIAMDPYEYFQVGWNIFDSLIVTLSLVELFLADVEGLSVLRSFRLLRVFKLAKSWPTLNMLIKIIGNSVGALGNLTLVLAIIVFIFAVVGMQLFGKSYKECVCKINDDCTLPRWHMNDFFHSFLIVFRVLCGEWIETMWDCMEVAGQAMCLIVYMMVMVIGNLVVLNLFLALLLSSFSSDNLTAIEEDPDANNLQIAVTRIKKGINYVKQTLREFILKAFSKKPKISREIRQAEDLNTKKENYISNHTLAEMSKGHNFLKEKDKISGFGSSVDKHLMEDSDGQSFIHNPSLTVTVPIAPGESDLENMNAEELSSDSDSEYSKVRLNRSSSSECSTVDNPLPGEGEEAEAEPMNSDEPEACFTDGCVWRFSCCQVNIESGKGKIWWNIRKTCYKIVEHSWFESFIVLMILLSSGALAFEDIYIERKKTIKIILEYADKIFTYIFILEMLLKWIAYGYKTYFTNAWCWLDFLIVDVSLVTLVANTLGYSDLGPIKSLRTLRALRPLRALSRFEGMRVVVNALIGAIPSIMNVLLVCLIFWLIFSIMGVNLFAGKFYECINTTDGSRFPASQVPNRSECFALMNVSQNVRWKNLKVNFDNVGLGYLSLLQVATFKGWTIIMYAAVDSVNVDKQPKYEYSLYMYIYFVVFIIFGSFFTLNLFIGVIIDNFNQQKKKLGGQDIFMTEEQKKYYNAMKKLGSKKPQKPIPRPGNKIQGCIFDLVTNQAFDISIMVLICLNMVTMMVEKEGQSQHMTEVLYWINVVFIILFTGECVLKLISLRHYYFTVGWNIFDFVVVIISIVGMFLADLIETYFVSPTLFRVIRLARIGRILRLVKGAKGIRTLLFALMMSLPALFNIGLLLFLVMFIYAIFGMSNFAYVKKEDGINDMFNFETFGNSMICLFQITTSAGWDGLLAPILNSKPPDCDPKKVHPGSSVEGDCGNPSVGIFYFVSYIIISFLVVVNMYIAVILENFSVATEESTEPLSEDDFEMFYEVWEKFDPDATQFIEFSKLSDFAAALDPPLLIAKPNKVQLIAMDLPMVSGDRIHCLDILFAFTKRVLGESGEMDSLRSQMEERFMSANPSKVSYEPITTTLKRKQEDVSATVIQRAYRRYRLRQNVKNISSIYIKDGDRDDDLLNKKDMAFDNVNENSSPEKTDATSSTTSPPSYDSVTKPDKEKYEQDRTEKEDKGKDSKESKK
Chain of human NaV1.5 (Q14524 whole entry): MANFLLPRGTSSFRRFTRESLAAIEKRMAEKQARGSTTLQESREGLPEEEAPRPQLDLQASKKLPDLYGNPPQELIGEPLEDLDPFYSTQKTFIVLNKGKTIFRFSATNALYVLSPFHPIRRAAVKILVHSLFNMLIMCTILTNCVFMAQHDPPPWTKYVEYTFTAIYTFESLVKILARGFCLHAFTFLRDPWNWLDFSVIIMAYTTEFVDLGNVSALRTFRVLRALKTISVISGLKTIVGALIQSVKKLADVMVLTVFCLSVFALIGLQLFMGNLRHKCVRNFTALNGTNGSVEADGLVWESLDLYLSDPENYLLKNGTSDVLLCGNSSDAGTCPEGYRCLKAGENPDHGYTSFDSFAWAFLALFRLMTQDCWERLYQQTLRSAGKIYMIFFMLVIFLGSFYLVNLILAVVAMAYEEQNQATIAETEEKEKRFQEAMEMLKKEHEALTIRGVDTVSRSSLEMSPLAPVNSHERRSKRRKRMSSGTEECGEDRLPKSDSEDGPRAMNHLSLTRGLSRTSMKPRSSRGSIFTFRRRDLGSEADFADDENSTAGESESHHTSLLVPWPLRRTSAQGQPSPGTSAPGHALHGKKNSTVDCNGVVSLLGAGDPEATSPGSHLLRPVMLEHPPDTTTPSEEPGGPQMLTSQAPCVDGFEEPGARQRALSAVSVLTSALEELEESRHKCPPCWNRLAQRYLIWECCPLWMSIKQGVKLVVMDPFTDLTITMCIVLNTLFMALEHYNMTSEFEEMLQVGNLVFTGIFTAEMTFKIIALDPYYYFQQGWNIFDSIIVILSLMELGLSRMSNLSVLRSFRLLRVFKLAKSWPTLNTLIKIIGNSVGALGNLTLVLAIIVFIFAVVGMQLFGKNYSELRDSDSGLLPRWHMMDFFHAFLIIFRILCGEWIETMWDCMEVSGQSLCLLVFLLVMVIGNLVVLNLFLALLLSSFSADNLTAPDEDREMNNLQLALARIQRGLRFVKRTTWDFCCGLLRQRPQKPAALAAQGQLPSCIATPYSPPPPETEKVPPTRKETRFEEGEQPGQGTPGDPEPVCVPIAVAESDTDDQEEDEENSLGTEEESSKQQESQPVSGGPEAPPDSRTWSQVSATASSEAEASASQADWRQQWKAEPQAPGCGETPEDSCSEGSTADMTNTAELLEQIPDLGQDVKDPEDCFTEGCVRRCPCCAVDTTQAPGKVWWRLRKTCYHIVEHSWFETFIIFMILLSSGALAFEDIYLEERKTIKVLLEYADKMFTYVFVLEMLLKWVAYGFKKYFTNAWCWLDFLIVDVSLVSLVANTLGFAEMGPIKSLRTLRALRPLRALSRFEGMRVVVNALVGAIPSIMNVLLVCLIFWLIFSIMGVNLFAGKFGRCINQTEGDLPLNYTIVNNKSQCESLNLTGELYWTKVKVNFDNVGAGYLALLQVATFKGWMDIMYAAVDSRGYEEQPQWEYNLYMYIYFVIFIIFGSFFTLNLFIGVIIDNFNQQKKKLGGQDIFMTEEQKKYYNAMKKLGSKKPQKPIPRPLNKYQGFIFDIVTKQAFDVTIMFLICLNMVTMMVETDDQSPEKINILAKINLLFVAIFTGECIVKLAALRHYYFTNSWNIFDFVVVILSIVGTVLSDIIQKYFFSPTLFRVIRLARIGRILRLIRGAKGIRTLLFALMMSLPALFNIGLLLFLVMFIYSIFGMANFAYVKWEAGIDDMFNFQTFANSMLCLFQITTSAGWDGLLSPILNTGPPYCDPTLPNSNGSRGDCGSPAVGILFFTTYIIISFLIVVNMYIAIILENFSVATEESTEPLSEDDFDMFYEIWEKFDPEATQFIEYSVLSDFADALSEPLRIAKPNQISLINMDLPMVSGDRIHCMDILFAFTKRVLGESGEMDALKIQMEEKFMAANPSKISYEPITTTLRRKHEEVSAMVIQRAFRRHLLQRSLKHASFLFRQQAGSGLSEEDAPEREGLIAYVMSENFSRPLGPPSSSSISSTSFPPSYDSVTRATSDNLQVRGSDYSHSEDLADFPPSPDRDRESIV

## CC[C@H](C)[C@H](NC(=O)[C@@H](NC(=O)[C@H](CCC(=O)O)NC(=O)[C@H](CCCNC(=N)N)NC(=O)[C@@H]1CSSC[C@@H]2NC(=O)[C@H](C)NC(=O)[C@H](CCCNC(=N)N)NC(=O)[C@H](CCCCN)NC(=O)[C@H](CO)NC(=O)[C@H](CC(=O)O)NC(=O)[C@@H]3CSSC[C@H](NC(=O)[C@H](CCCNC(=N)N)NC(=O)[C@H](CC(C)C)NC(=O)CNC(=O)[C@H](CCC(=O)O)NC(=O)[C@H](CSSC[C@H](NC(=O)[C@@H](N)Cc4ccc(O)cc4)C(=O)N[C@@H](CCC(N)=O)C(=O)N[C@@H](CCCCN)C(=O)N[C@@H](Cc4c[nH]c5ccccc45)C(=O)N[C@@H](CCSC)C(=O)N[C@@H](Cc4c[nH]c5ccccc45)C(=O)N[C@@H]([C@@H](C)O)C(=O)N3)NC2=O)C(=O)N[C@@H](CCCCN)C(=O)N[C@@H](CC(C)C)C(=O)N[C@@H](Cc2c[nH]c3ccccc23)C(=O)N1)[C@@H](C)CC)C(N)=O [K27 Glu mutant]
Human NaV1.5; [1]
  IC50: > 10 µM
Human NaV1.4; [2]
  IC50: > 10 µM
Human NaV1.7; [3]
  IC50: 0.748 µM

## CC[C@H](C)[C@H](NC(=O)[C@@H](NC(=O)[C@H](CCCCN)NC(=O)[C@H](CCCNC(=N)N)NC(=O)[C@@H]1CSSC[C@@H]2NC(=O)[C@H](C)NC(=O)[C@H](CCCNC(=N)N)NC(=O)[C@H](CCCCN)NC(=O)[C@H](CO)NC(=O)[C@H](CC(=O)O)NC(=O)[C@@H]3CSSC[C@H](NC(=O)[C@H](CCCNC(=N)N)NC(=O)[C@H](CC(C)C)NC(=O)CNC(=O)[C@H](CCC(=O)O)NC(=O)[C@H](CSSC[C@H](NC(=O)[C@@H](N)Cc4ccc(O)cc4)C(=O)N[C@@H](CCC(N)=O)C(=O)N[C@@H](CCCCN)C(=O)N[C@@H](Cc4c[nH]c5ccccc45)C(=O)N[C@@H](CCC(=O)O)C(=O)N[C@@H](Cc4c[nH]c5ccccc45)C(=O)N[C@@H]([C@@H](C)O)C(=O)N3)NC2=O)C(=O)N[C@@H](CCCCN)C(=O)N[C@@H](CC(C)C)C(=O)N[C@@H](Cc2c[nH]c3ccccc23)C(=O)N1)[C@@H](C)CC)C(N)=O [M6 Glu mutant]
Human NaV1.5; [1]
  IC50: > 10 µM
Human NaV1.4; [2]
  IC50: > 10 µM
Human NaV1.7; [3]
  IC50: > 10 µM

## CC[C@H](C)[C@H](NC(=O)[C@@H](NC(=O)[C@H](CCCCN)NC(=O)[C@H](CCCNC(=N)N)NC(=O)[C@@H]1CSSC[C@@H]2NC(=O)[C@H](C)NC(=O)[C@H](CCCNC(=N)N)NC(=O)[C@H](CCCCN)NC(=O)[C@H](CO)NC(=O)[C@H](CC(=O)O)NC(=O)[C@@H]3CSSC[C@H](NC(=O)[C@H](CCCNC(=N)N)NC(=O)[C@H](CC(C)C)NC(=O)CNC(=O)[C@H](CCC(=O)O)NC(=O)[C@H](CSSC[C@H](NC(=O)[C@@H](N)Cc4ccc(O)cc4)C(=O)N[C@@H](CCC(N)=O)C(=O)N[C@@H](CCCCN)C(=O)N[C@@H](CCC(=O)O)C(=O)N[C@@H](CCSC)C(=O)N[C@@H](Cc4c[nH]c5ccccc45)C(=O)N[C@@H]([C@@H](C)O)C(=O)N3)NC2=O)C(=O)N[C@@H](CCCCN)C(=O)N[C@@H](CC(C)C)C(=O)N[C@@H](Cc2c[nH]c3ccccc23)C(=O)N1)[C@@H](C)CC)C(N)=O [W5 Glu mutant]
Human NaV1.5; [1]
  IC50: > 10 µM
Human NaV1.4; [2]
  IC50: > 10 µM
Human NaV1.7; [3]
  IC50: > 10 µM

## CC[C@H](C)[C@H](NC(=O)[C@@H](NC(=O)[C@H](CCCCN)NC(=O)[C@H](CCCNC(=N)N)NC(=O)[C@@H]1CSSC[C@@H]2NC(=O)[C@H](C)NC(=O)[C@H](CCCNC(=N)N)NC(=O)[C@H](CCCCN)NC(=O)[C@H](CO)NC(=O)[C@H](CC(=O)O)NC(=O)[C@@H]3CSSC[C@H](NC(=O)[C@H](CCCNC(=N)N)NC(=O)[C@H](CCC(=O)O)NC(=O)CNC(=O)[C@H](CCC(=O)O)NC(=O)[C@H](CSSC[C@H](NC(=O)[C@@H](N)Cc4ccc(O)cc4)C(=O)N[C@@H](CCC(N)=O)C(=O)N[C@@H](CCCCN)C(=O)N[C@@H](Cc4c[nH]c5ccccc45)C(=O)N[C@@H](CCSC)C(=O)N[C@@H](Cc4c[nH]c5ccccc45)C(=O)N[C@@H]([C@@H](C)O)C(=O)N3)NC2=O)C(=O)N[C@@H](CCCCN)C(=O)N[C@@H](CC(C)C)C(=O)N[C@@H](Cc2c[nH]c3ccccc23)C(=O)N1)[C@@H](C)CC)C(N)=O [L19 Glu mutant]
Human NaV1.5; [1]
  IC50: > 10 µM
Human NaV1.4; [2]
  IC50: > 10 µM
Human NaV1.7; [3]
  IC50: > 10 µM

## CC[C@H](C)[C@H](NC(=O)[C@@H](NC(=O)[C@H](C)NC(=O)[C@H](CCCNC(=N)N)NC(=O)[C@@H]1CSSC[C@@H]2NC(=O)[C@H](C)NC(=O)[C@H](CCCNC(=N)N)NC(=O)[C@H](CCCCN)NC(=O)[C@H](CO)NC(=O)[C@H](CC(=O)O)NC(=O)[C@@H]3CSSC[C@H](NC(=O)[C@H](CCCNC(=N)N)NC(=O)[C@H](CC(C)C)NC(=O)CNC(=O)[C@H](CCC(=O)O)NC(=O)[C@H](CSSC[C@H](NC(=O)[C@@H](N)Cc4ccc(O)cc4)C(=O)N[C@@H](CCC(N)=O)C(=O)N[C@@H](CCCCN)C(=O)N[C@@H](Cc4c[nH]c5ccccc45)C(=O)N[C@@H](CCSC)C(=O)N[C@@H](Cc4c[nH]c5ccccc45)C(=O)N[C@@H]([C@@H](C)O)C(=O)N3)NC2=O)C(=O)N[C@@H](CCCCN)C(=O)N[C@@H](CC(C)C)C(=O)N[C@@H](Cc2c[nH]c3ccccc23)C(=O)N1)[C@@H](C)CC)C(N)=O [K27 Ala mutant]
Human NaV1.5; [4]
  IC50: > 10 µM
Human NaV1.4; [5]
  IC50: 2.32 µM
Human NaV1.7; [6]
  IC50: 0.374 µM

## CC[C@H](C)[C@H](NC(=O)[C@@H](NC(=O)[C@H](CCCCN)NC(=O)[C@H](CCCNC(=N)N)NC(=O)[C@@H]1CSSC[C@@H]2NC(=O)[C@H](C)NC(=O)[C@H](CCCNC(=N)N)NC(=O)[C@H](CCCCN)NC(=O)[C@H](CO)NC(=O)[C@H](CC(=O)O)NC(=O)[C@@H]3CSSC[C@H](NC(=O)[C@H](CCCNC(=N)N)NC(=O)[C@H](CC(C)C)NC(=O)CNC(=O)[C@H](CCC(=O)O)NC(=O)[C@H](CSSC[C@H](NC(=O)[C@@H](N)Cc4ccc(O)cc4)C(=O)N[C@@H](CCC(N)=O)C(=O)N[C@@H](CCCCN)C(=O)N[C@@H](C)C(=O)N[C@@H](CCSC)C(=O)N[C@@H](Cc4c[nH]c5ccccc45)C(=O)N[C@@H]([C@@H](C)O)C(=O)N3)NC2=O)C(=O)N[C@@H](CCCCN)C(=O)N[C@@H](CC(C)C)C(=O)N[C@@H](Cc2c[nH]c3ccccc23)C(=O)N1)[C@@H](C)CC)C(N)=O [W5 Ala mutant]
Human NaV1.5; [4]
  IC50: > 10 µM
Human NaV1.4; [5]
  IC50: > 10 µM
Human NaV1.7; [6]
  IC50: 1.55 µM

## CC[C@H](C)[C@H](NC(=O)[C@@H](NC(=O)[C@H](CCCCN)NC(=O)[C@H](CCCNC(=N)N)NC(=O)[C@@H]1CSSC[C@@H]2NC(=O)[C@H](C)NC(=O)[C@H](CCCNC(=N)N)NC(=O)[C@H](CCCCN)NC(=O)[C@H](CO)NC(=O)[C@H](CC(=O)O)NC(=O)[C@@H]3CSSC[C@H](NC(=O)[C@H](CCCNC(=N)N)NC(=O)[C@H](CC(C)C)NC(=O)CNC(=O)[C@H](CCC(=O)O)NC(=O)[C@H](CSSC[C@H](NC(=O)[C@@H](N)Cc4ccc(O)cc4)C(=O)N[C@@H](CCC(N)=O)C(=O)N[C@@H](CCC(=O)O)C(=O)N[C@@H](Cc4c[nH]c5ccccc45)C(=O)N[C@@H](CCSC)C(=O)N[C@@H](Cc4c[nH]c5ccccc45)C(=O)N[C@@H]([C@@H](C)O)C(=O)N3)NC2=O)C(=O)N[C@@H](CCCCN)C(=O)N[C@@H](CC(C)C)C(=O)N[C@@H](Cc2c[nH]c3ccccc23)C(=O)N1)[C@@H](C)CC)C(N)=O [K4 Glu mutant]
Human NaV1.5; [1]
  IC50: > 10 µM
Human NaV1.4; [2]
  IC50: 0.967 µM
Human NaV1.7; [3]
  IC50: 0.106 µM

## CC[C@H](C)[C@H](NC(=O)[C@@H](NC(=O)[C@H](CCCCN)NC(=O)[C@H](CCCNC(=N)N)NC(=O)[C@@H]1CSSC[C@@H]2NC(=O)[C@H](C)NC(=O)[C@H](CCCNC(=N)N)NC(=O)[C@H](CCCCN)NC(=O)[C@H](CO)NC(=O)[C@H](CC(=O)O)NC(=O)[C@@H]3CSSC[C@H](NC(=O)[C@H](CCCNC(=N)N)NC(=O)[C@H](CC(C)C)NC(=O)CNC(=O)[C@H](CCC(=O)O)NC(=O)[C@H](CSSC[C@H](NC(=O)[C@@H](N)Cc4ccc(O)cc4)C(=O)N[C@@H](CCC(N)=O)C(=O)N[C@@H](CCCCN)C(=O)N[C@@H](Cc4c[nH]c5ccccc45)C(=O)N[C@@H](CCSC)C(=O)N[C@@H](Cc4c[nH]c5ccccc45)C(=O)N[C@@H](CCC(=O)O)C(=O)N3)NC2=O)C(=O)N[C@@H](CCCCN)C(=O)N[C@@H](CC(C)C)C(=O)N[C@@H](Cc2c[nH]c3ccccc23)C(=O)N1)[C@@H](C)CC)C(N)=O [T8 Glu mutant]
Human NaV1.5; [1]
  IC50: > 10 µM
Human NaV1.4; [2]
  IC50: > 10 µM
Human NaV1.7; [3]
  IC50: 3.86 µM

## CC[C@H](C)[C@H](NC(=O)[C@@H](NC(=O)[C@H](CCCCN)NC(=O)[C@H](CCCNC(=N)N)NC(=O)[C@@H]1CSSC[C@@H]2NC(=O)[C@H](C)NC(=O)[C@H](CCCNC(=N)N)NC(=O)[C@H](CCCCN)NC(=O)[C@H](CO)NC(=O)[C@H](CCC(=O)O)NC(=O)[C@@H]3CSSC[C@H](NC(=O)[C@H](CCCNC(=N)N)NC(=O)[C@H](CC(C)C)NC(=O)CNC(=O)[C@H](CCC(=O)O)NC(=O)[C@H](CSSC[C@H](NC(=O)[C@@H](N)Cc4ccc(O)cc4)C(=O)N[C@@H](CCC(N)=O)C(=O)N[C@@H](CCCCN)C(=O)N[C@@H](Cc4c[nH]c5ccccc45)C(=O)N[C@@H](CCSC)C(=O)N[C@@H](Cc4c[nH]c5ccccc45)C(=O)N[C@@H]([C@@H](C)O)C(=O)N3)NC2=O)C(=O)N[C@@H](CCCCN)C(=O)N[C@@H](CC(C)C)C(=O)N[C@@H](Cc2c[nH]c3ccccc23)C(=O)N1)[C@@H](C)CC)C(N)=O [D10 Glu mutant]
Human NaV1.5; [1]
  IC50: > 10 µM
Human NaV1.4; [2]
  IC50: 8.8 µM
Human NaV1.7; [3]
  IC50: 1.3 µM

## CC[C@H](C)[C@H](NC(=O)[C@@H](NC(=O)[C@H](CCCCN)NC(=O)[C@H](CCCNC(=N)N)NC(=O)[C@@H]1CSSC[C@@H]2NC(=O)[C@H](C)NC(=O)[C@H](CCC(=O)O)NC(=O)[C@H](CCCCN)NC(=O)[C@H](CO)NC(=O)[C@H](CC(=O)O)NC(=O)[C@@H]3CSSC[C@H](NC(=O)[C@H](CCCNC(=N)N)NC(=O)[C@H](CC(C)C)NC(=O)CNC(=O)[C@H](CCC(=O)O)NC(=O)[C@H](CSSC[C@H](NC(=O)[C@@H](N)Cc4ccc(O)cc4)C(=O)N[C@@H](CCC(N)=O)C(=O)N[C@@H](CCCCN)C(=O)N[C@@H](Cc4c[nH]c5ccccc45)C(=O)N[C@@H](CCSC)C(=O)N[C@@H](Cc4c[nH]c5ccccc45)C(=O)N[C@@H]([C@@H](C)O)C(=O)N3)NC2=O)C(=O)N[C@@H](CCCCN)C(=O)N[C@@H](CC(C)C)C(=O)N[C@@H](Cc2c[nH]c3ccccc23)C(=O)N1)[C@@H](C)CC)C(N)=O [R13 Glu mutant]
Human NaV1.5; [1]
  IC50: > 10 µM
Human NaV1.4; [2]
  IC50: > 10 µM
Human NaV1.7; [3]
  IC50: 4.57 µM
